Strand notation (5' to 3'): a small letter for the sugar, then the base; units joined by * are phosphorothioate-linked, units joined directly phosphodiester-linked; [ ] holds rarer units or linkages, { } end groups; capitals alone tell only the bases. [Uhd] = commercial lipid-conjugated uridine analogue Uhd (C16), from Hongene, reference; {VP} = (thio)vinylphosphonate on the antisense 5' nucleotide, as listed; e = 2'-O-(2-methoxyethyl) (MOE); m = 2'-O-methyl; f = 2'-fluoro
Tests used:
target gene SOD1 [1] = assay: Test Example 8: inhibitory activity on target gene SOD1 in adipose tissues in different parts of mice; type: in vivo, C57BL/6j mice; settings: tail vein injection 5 mg/kg, D14
Protocol: (§1) RNA extraction: the above tissue samples were taken out from the RNAlater, and smashed for 60 s in Tissuelyser type II full-automatic tissue homogenizer, and total RNAs of various tissue samples were extracted using the full-automatic nucleic acid extraction instrument and the nucleic acid extraction kit from Zhejiang Hanwei Science and Technology Co. Ltd. according to methods described in instructions.
(§2) Reverse transcription reaction: 1 μg of the extracted total RNAs of the tissue samples were taken, and configured into 20 μL of reverse transcription system according to a method described in kit instructions by using a reverse transcription kit (Reverse Transcription System, A3500) from Promega Corporation and selecting Oligo (dT)15 reverse transcription primers, and the reverse transcription reaction was completed. After the reaction was ended, 80 μL of RNase-Free water was added into the reverse transcription system to provide cDNA solution for Real-time PCR detection.
(§3) Real-time PCR detection: 20 μL of Real-time PCR reaction system per PCR detection well was configured according to a method described in kit instructions using SYBR™ Select Master Mix (Catalog number: 4472908) reagent from ABI company. Each detection system contained 5 μL of cDNA template obtained from the above reverse transcription reaction, 10 μL of SYBR™ Select Master Mix, 0.5 μL of 10 μM upstream primers, 0.5 μL of 10 μM downstream primers, and 4 μL of RNase-Free H2O. The configured reaction system was subjected to Real-time PCR amplification on ABI StepOnePlus PCR instrument by a three-step method, wherein an amplification procedure was pre-denaturation at 95° C. for 10 min, then denaturation at 95° C. for 30 s, annealing at 60° C. for 30 s, and extension at 72° C. for 30 s; and processes of denaturation, annealing, and extension were repeated for 40 cycles. Gene expression differences were calculated by the ΔΔCt method after completion of the procedure.
(§4) In the real-time fluorescence quantitative PCR method, relative quantitative calculation of remaining expression level and inhibition rate of gene mRNA of interest in various test groups was performed by the ΔΔCt method, and the calculation method is as follows:
(§5) The present test example evaluated, by an evaluation method for inhibitory activity on a target gene in mice, the inhibitory activity of siRNA sequence RZ899090 with the sense strand with the NM073 conjugation at Position 4, siRNA sequence RZ899091 with the sense strand with the NM074 conjugation at Position 4, siRNA sequence RZ899078 with the sense strand with the NM202 conjugation at Position 6 and siRNA reference sequence RZ899093 with the sense strand with the Uhd conjugation at Position 4, siRNA reference sequence RZ899076 with the sense strand with the NM200 conjugation at Position 4 on the target gene SOD1 in adipose tissues of interest in mice.
(§6) 6-8 Week-old C57BL/6j mice were randomly grouped by body weight, 5 per group, 6 groups in total. Mice in each group were dosed with the above siRNA conjugates by tail vein injection, with an administration dose of 5 mg/kg per mouse, and an administration volume of 150 μL. PBS control group was administered with the same volume of siRNA conjugate-free PBS solution. The day of administration was recorded as D0, and 5 mice in each group were sacrificed on D14 after administration. Paragonadal fat, abdominal subcutaneous fat, and brown fat on back were respectively taken. RNA extraction, reverse transcription, and real-time fluorescence quantitative detection were performed on various tissues according to the above method, and gene expression differences were calculated by the above ΔΔCt method.

target gene SOD1 [2] = assay: Test Example 7: inhibitory activity of lipid conjugated siRNA sequences on SOD1 in mouse adipose and muscle tissues (tail vein injection); type: in vivo, C57BL/6j mice; settings: tail vein injection 5 mg/kg
Protocol: as §1, §2, §3, §4
as §5, with “Position 4, and siRNA reference” for “Position 4, siRNA reference”, “gene SOD1 of interest” for “gene SOD1 in adipose tissues of interest”, “in mice. The above conjugation vectors were different in that NM073 was C18 aliphatic chain, NM074 was C20 aliphatic chain, and NM0202 and NM0200 were C22 aliphatic chains.” for “in mice.”
as §6, with “weight, 15” for “weight, 5”, “on D14, D28 and D49” for “on D14”, “administration. Tissues such as paragonadal” for “administration. Paragonadal”, “fat, left hind leg quadriceps muscle, heart, liver,” for “fat, abdominal subcutaneous fat,”, “and kidney” for “and brown fat on back”, “respectively taken and stored in the RNAlater.” for “respectively taken.”

RZ899093: siRNA reference sequence with the sense strand with the Uhd (C16) conjugation at Position 4; SEQ ID NO: 13 / 23 (sense mU*mU*mU[Uhd]mAmAfUfCfCfUmCmAmCmUmCmUmAmAmA; antisense {VP}-mU*fU*mUmAmGfAmGmUmGmAmGfGmAfUeUfAmAmAmA*mU*mG) [reference compound]
Subcutaneous fat % Mean value of inhibition rate (target gene SOD1 [1]; abdominal subcutaneous fat): 85.92% | Brown fat on back % Mean value of inhibition rate (target gene SOD1 [1]; brown fat on back): 77.13% | Paragonadal fat % Mean value of inhibition rate (target gene SOD1 [1]; paragonadal fat): 76.20% | D 14 % Mean value of inhibition rate (target gene SOD1 [2]; mouse adipose tissues (paragonadal fat), D14): 88.95% | D 28 % Mean value of inhibition rate (target gene SOD1 [2]; mouse adipose tissues (paragonadal fat), D28): 81.22% | D 49 % Mean value of inhibition rate (target gene SOD1 [2]; mouse adipose tissues (paragonadal fat), D49): 81.75% | D 14 % Mean value of inhibition rate (target gene SOD1 [2]; mouse heart tissues, D14): 57.83% | D 28 % Mean value of inhibition rate (target gene SOD1 [2]; mouse heart tissues, D28): 60.42% | D 49 % Mean value of inhibition rate (target gene SOD1 [2]; mouse heart tissues, D49): 44.18% | Kidney D 14 % Mean value of inhibition rate (target gene SOD1 [2]; mouse kidney, D14): 42.87% | Kidney D 28 % Mean value of inhibition rate (target gene SOD1 [2]; mouse kidney, D28): 19.28% | Kidney D 49 % Mean value of inhibition rate (target gene SOD1 [2]; mouse kidney, D49): 18.90% | Liver D 14 % Mean value of inhibition rate (target gene SOD1 [2]; mouse liver, D14): 48.04% | Liver D 28 % Mean value of inhibition rate (target gene SOD1 [2]; mouse liver, D28): 13.41% | Liver D 49 % Mean value of inhibition rate (target gene SOD1 [2]; mouse liver, D49): 13.02% | D 14 % Mean value of inhibition rate (target gene SOD1 [2]; mouse skeletal muscle tissues (left hind leg quadriceps muscle), D14): 68.42% | D 28 % Mean value of inhibition rate (target gene SOD1 [2]; mouse skeletal muscle tissues (left hind leg quadriceps muscle), D28): 64.12% | D 49 % Mean value of inhibition rate (target gene SOD1 [2]; mouse skeletal muscle tissues (left hind leg quadriceps muscle), D49): 44.88%

From patent publication US20260132165A1, “MODIFIED NUCLEOSIDE ANALOGUE AND USE THEREOF, AND NUCLEOSIDE ANALOGUE-CONTAINING DOUBLE-STRANDED OLIGONUCLEOTIDE AND USE THEREOF” (RIGERNA THERAPEUTICS (BEIJING) CO., LTD., priority 2023, published 2026)
